According to patent US9734283B2, “Genomic features associated with epigenetic control regions and transgenerational inheritance of epimutations” (priority 2011, dated 2017):

Tests used:
[1] = test system: sperm promoter epigenome (DNA methylation); assay: MeDIP-Chip (Nimblegen promoter tiling array, competitive hybridization) of F3 sperm DNA with qPCR validation; format: in vivo, mouse; settings: F3 generation sperm
Procedure: Sperm heads were separated from tails and purified following the protocol described^53 (without protease inhibitors) from a total of six F3 vinclozolin generation mice and six F3 control generation mice in the range of 13-15 months of age. Sperm heads were then further purified using a 70% sucrose gradient centrifugation, based on the method described.^54 Purified sperm heads were resuspended in 1 ml buffer 0.5M tris-HCl, pH 8, 0.5M EDTA, 10% SDS and treated with 100 μl proteinase K (20 mg/mL) and 100 μl DDT (0.1 M) at 55° C. for 1 hour. DNA was precipitated with 50% isopropanol, washed with 70% ethanol and resuspended in DEPC H20. Individual sperm DNA was used as samples for further methylated DNA immunoprecipitation.^15 Two pools of samples were produced for each experimental treatment (control and vinclozolin), therefore each pool contained DNA from three animals from different litters. The MeDIP was performed as follows: 6 μg of genomic DNA was subjected to series of three 20 pulse sonications at 20% amplitude and the appropriate fragment size (200-1000 bp) was verified through 2% agarose gels; the sonicated genomic DNA was resuspended in 350 μl TE and denaturated for 10 min at 95° C. and then immediately placed on ice for 5 min; 100 μl of 5×IP buffer (50 mM Na-phosphate pH7, 700 mM NaCl, 0.25% Triton X-100) was added to the sonicated and denatured DNA.
An overnight incubation of the DNA was performed with 5 μg of antibody anti-5-methylcytidine monoclonal from Diagenode S.A at 4° C. on a rotating platform. Protein A/G beads from Santa Cruz were prewashed on PBS-BSA 0.1% and resuspended in 40 μl 1× IP buffer. Beads were then added to the DNA-antibody complex and incubated 2 h at 4° C. on a rotating platform. Beads bound to DNA-antibody complex were washed 3 times with 1 ml 1×IP buffer; washes included incubation for 5 min at 4° C. on a rotating platform and then centrifugation at 6000 rpm for 2 min. Beads-DNA-antibody complex were then resuspended in 250 μl digestion buffer (50 mM Tris HCl pH 8, 10 mM EDTA, 0.5% SDS) and 3.5 μl of proteinase K (20 mg/ml) was added to each sample and then incubated overnight at 55° C. on a rotating platform. DNA purification was performed first with phenol and then with chloroform: isoamyl alcohol. Two washes were then performed with 70% ethanol, 1 M NaCl and glycogen. MeDIP-selected DNA was then resuspended in 30 μl TE buffer. MeDIP sperm DNA was pooled into each of the four above mentioned groups, adding equal amounts of sperm DNA from each individual sample to the pools. Therefore, a total of four pools of MeDIP sperm DNA (C1, C2, V1 and V2) were used for the ChIP arrays.
Nimblegen Mouse Promoter 3×720K format microarray (Mouse Ref Seq promoter array) was used, each subarray contains 709,520 probes. […]

[2] = test system: sperm promoter epigenome (DNA methylation); assay: MeDIP-Chip with Affymetrix mouse promoter tiling arrays; format: in vivo; settings: duplicate arrays, no direct comparative hybridization; none confirmed by bisulfite PCR and mass spectrometry
Source text: Affymetrics' GeneChip® Mouse Promoter 1.0R Array was used, which contains 4.6 million probes tiled that interrogate nearly 28,000 mouse promoter regions. These probes are 25-mer and tiled at an average resolution of 35 bp with gaps of approximately 10 bp between probes. Each promoter region covers approximately 6 kb upstream through 2.5 kb downstream of 5′ transcription start sites. A total of 6 arrays were used, one each for C1, C2, V1 and V2, one for C1+C2 and another for their DNA inputs, InpC1+InpC2.

[3] = test system: CD-1 mice ovaries; assay: Identification of ovarian cysts in vinclozolin lineage females; format: in vivo, mouse; settings: CD-1 females, all F1-F3 generations, V2 200 mg/kg/day; p<0.05
Procedure: Abnormalities in adult females of the F1, F2 and F3 generations were not extensively evaluated. However, at the time of sacrifice and dissection it was noticed that some females had cystic structures on their ovaries. These were grossly visible fluid-filled structures larger than normal Graffian follicles. If an animal had one or more cystic structures on one or both ovaries, then that female was considered to have cystic ovaries. A sub-set of 17 ovaries was also evaluated histologically, and there was concordance of ovaries labeled as cystic at gross dissection with the histologic presence of very large cystic structures. Cysts were defined as structures having a lining of none or a single layer of granulosa cells and an increased thickness of the surrounding stromal/thecal layer compared to what is found in large antral follicles.

In the case of C=CC1(C)OC(=O)N(c2cc(Cl)cc(Cl)c2)C1=O (racemic) [vinclozolin, (RS)-3-(3,5-dichlorophenyl)-5-methyl-5-vinyl-1,3-oxazolidine-2,4-dione], the “number of confirmed sites with decreased DNA methylation” value ([1]; CD-1) is reported as 12, the “number of confirmed sites with increased DNA methylation” value ([1]; CD-1) is reported as 28 and the “number of promoters with differential DNA methylation regions (DMR), MeDIP-Chip” value ([1]; CD-1, vinclozolin 100 mg/kg/day lineage vs control) is reported as 66. The “number of DMR confirmed with qPCR” value ([1]; CD-1, vinclozolin lineage vs control) was 40, the “number of differential methylation regions identified with Affymetrix tiling arrays” value [2] was “seven” and the ovarian cysts [3] was “significant increase”.
